Source: ChEMBL document CHEMBL5506025, “Discovery of LLC0424 as a Potent and Selective in Vivo NSD2 PROTAC Degrader” (J Med Chem, 2024)
Activity calls are given as the source filed them.

Assays:
[1] = target: T1, Protein cereblon/Histone-lysine N-methyltransferase NSD2 (Homo sapiens) (UniProt O96028+Q96SW2); assay: PROTAC activity at CRBN/NSD2 in human SEM cells assessed as induction of NSD2 degradation incubated for 24 hrs by immunoblot analysis; format: cell-based; conditions: dose 0.001-10 µM
[2] = target: T1, Protein cereblon/Histone-lysine N-methyltransferase NSD2 (Homo sapiens); assay: PROTAC activity at CRBN/NSD2 in human SEM cells assessed as induction of NSD2 degradation at 2 uM measured after 4 to 8 hrs hrs by immunoblot analysis; format: cell-based; conditions: time 4-8 hrs
[3] = target: T1, Protein cereblon/Histone-lysine N-methyltransferase NSD2 (Homo sapiens); assay: PROTAC activity at CRBN/NSD2 in human RPMI 8402 cells assessed as induction of NSD2 degradation at 0.5 to 2 uM measured after 24 hrs by immunoblot analysis; format: cell-based; conditions: dose 0.5-2 µM
[4] = target: T1, Protein cereblon/Histone-lysine N-methyltransferase NSD2 (Homo sapiens); assay: PROTAC activity at CRBN/NSD2 in human SEM cells assessed as induction of NSD2 degradation at 0.5 to 2 uM measured after 24 hrs by immunoblot analysis; format: cell-based; conditions: dose 0.5-2 µM
[5] = target: T1, Protein cereblon/Histone-lysine N-methyltransferase NSD2 (Homo sapiens); assay: PROTAC activity at CRBN/NSD2 in human RPMI 8402 cells assessed as induction of NSD2 degradation at 2 uM pretreated with UNC6934 for 2 hrs followed by compound addition and measured after 6 to 12 hrs by Western blot analysis; format: cell-based; conditions: time 6-12 hrs
[6] = target: T1, Protein cereblon/Histone-lysine N-methyltransferase NSD2 (Homo sapiens); assay: PROTAC activity at CRBN/NSD2 in human RPMI 8402 cells assessed as induction of NSD2 degradation at 2 uM pretreated with VL-285 for 2 hrs followed by compound addition and measured after 6 to 12 hrs by Western blot analysis; format: cell-based; conditions: time 6-12 hrs
[7] = target: T1, Protein cereblon/Histone-lysine N-methyltransferase NSD2 (Homo sapiens); assay: PROTAC activity at CRBN/NSD2 in human RPMI 8402 cells assessed as induction of NSD2 degradation at 2 uM pretreated with bortezomib for 2 hrs followed by compound addition and measured after 6 to 12 hrs by Western blot analysis; format: cell-based; conditions: time 6-12 hrs
[8] = target: T1, Protein cereblon/Histone-lysine N-methyltransferase NSD2 (Homo sapiens); assay: PROTAC activity at CRBN/NSD2 in human SEM cells assessed as induction of NSD2 degradation at 2 uM incubated for 12 hrs by immunoblot analysis; format: cell-based
[9] = target: T1, Protein cereblon/Histone-lysine N-methyltransferase NSD2 (Homo sapiens); assay: PROTAC activity at CRBN/NSD2 in human SEM cells assessed as induction of NSD2 degradation at 2 uM preincubated for 12 hrs followed by compound washout and measured after 48 hrs by immunoblot analysis; format: cell-based
[10] = target: T1, Protein cereblon/Histone-lysine N-methyltransferase NSD2 (Homo sapiens); assay: PROTAC activity at CRBN/NSD2 in human RPMI 8402 cells assessed as decrease in NSD2 level at 2 uM measured after 12 hrs by TMT-labeled quantitative proteomics assay; format: cell-based
[11] = target: Protein cereblon/Histone-lysine N-methyltransferase NSD3 (Homo sapiens) (UniProt Q9BZ95+Q96SW2); assay: PROTAC activity at CRBN/NSD3 in human SEM cells assessed as decrease in NSD3 level at 2 uM measured upto 8 hrs by immunoblot analysis; format: cell-based
[12] = target: Cereblon/Ikaros (Homo sapiens) (UniProt Q96SW2+Q13422); assay: PROTAC activity at CRBN/IKZF1 in human SEM cells assessed as decrease in IKZF1 level at 2 uM measured upto 8 hrs by immunoblot analysis; format: cell-based
[13] = target: Protein cereblon/Zinc finger protein Aiolos (Homo sapiens) (UniProt Q96SW2+Q9UKT9); assay: PROTAC activity at CRBN/IKZF3 in human SEM cells assessed as decrease in IKZF3 level at 2 uM measured upto 8 hrs by immunoblot analysis; format: cell-based
[14] = target: T2, Protein cereblon/Eukaryotic peptide chain release factor GTP-binding subunit ERF3A (Homo sapiens) (UniProt Q96SW2+P15170); assay: PROTAC activity at CRBN/GSPT1 in human SEM cells assessed as decrease in GSPT1 level at 2 uM measured upto 8 hrs by immunoblot analysis; format: cell-based
[15] = target: Cereblon/Casein kinase I alpha (Homo sapiens) (UniProt P48729+Q96SW2); assay: PROTAC activity at CRBN/CK1alpha in human SEM cells assessed as decrease in CK1alpha level at 2 uM measured upto 8 hrs by immunoblot analysis; format: cell-based
[16] = target: T2, Protein cereblon/Eukaryotic peptide chain release factor GTP-binding subunit ERF3A (Homo sapiens); assay: PROTAC activity at CRBN/GSPT1 in human RPMI 8402 cells assessed as decrease in GSPT1 level at 2 uM measured after 12 hrs by TMT-labeled quantitative proteomics assay; format: cell-based
[17] = target: T2, Protein cereblon/Eukaryotic peptide chain release factor GTP-binding subunit ERF3A (Homo sapiens); assay: PROTAC activity at CRBN/GSPT1 in human RPMI 8402 cells assessed as decrease in GSPT1 level at 2 uM by immunoblot analysis; format: cell-based
[18] = target: T1, Protein cereblon/Histone-lysine N-methyltransferase NSD2 (Homo sapiens); assay: PROTAC activity at CRBN/NSD2 in human RPMI 8402 cells assessed as downregulation of H3K36Me2 level at 2 uM measured upto 24 hrs hrs by immunoblot analysis; format: cell-based
[19] = tested on: SEM cells; assay: Cytotoxicity against human SEM cells assessed as inhibition of cell growth at 2 uM measured after 9 days by Celltiter-glo assay; format: functional, cell-based; conditions: time 9.0 day
[20] = tested on: RPMI 8402; assay: Cytotoxicity against human RPMI 8402 cells assessed as inhibition of cell growth at 2 uM measured after 9 days by Celltiter-glo assay; format: functional, cell-based; conditions: time 9.0 day
[21] = tested on: SEM cells; assay: Downregulation of CD38 gene expression in human SEM cells measured after 14 days by RNA sequencing assay; format: functional, cell-based; conditions: time 14.0 day
[22] = tested on: SEM cells; assay: Downregulation of MS4A1 gene expression in human SEM cells measured after 14 days by RNA sequencing assay; format: functional, cell-based; conditions: time 14.0 day
[23] = tested on: SEM cells; assay: Downregulation of CD9 gene expression in human SEM cells measured after 14 days by RNA sequencing assay; format: functional, cell-based; conditions: time 14.0 day
[24] = tested on: SEM cells; assay: Downregulation of TNFAIP3 gene expression in human SEM cells measured after 14 days by RNA sequencing assay; format: functional, cell-based; conditions: time 14.0 day
[25] = tested on: SEM cells; assay: Cytotoxicity against human SEM cells harbouring NSD2 assessed as inhibition of cell growth at 2 uM measured after 9 days by Celltiter-glo assay; format: functional, cell-based; conditions: time 9.0 day
[26] = target: T1, Protein cereblon/Histone-lysine N-methyltransferase NSD2 (Homo sapiens); assay: In vivo PROTAC activity at CRBN/NSD2 in SCID mouse xenografted with human SEM cells assessed as downregulation of NSD2 level at 60 mg/kg, iv for 5 days by Western blot analysis; format: functional, organism-based; conditions: time 5.0 day
[27] = target: T1, Protein cereblon/Histone-lysine N-methyltransferase NSD2 (Homo sapiens); assay: In vivo PROTAC activity at CRBN/NSD2 in SCID mouse xenografted with human SEM cells assessed as downregulation of NSD2 level at 60 mg/kg, ip for 5 days by Western blot analysis; format: functional, organism-based; conditions: time 5.0 day
[28] = target: T1, Protein cereblon/Histone-lysine N-methyltransferase NSD2 (Homo sapiens); assay: In vivo PROTAC activity at CRBN/NSD2 in SCID mouse xenografted with human 22Rv1 cells assessed as downregulation of NSD2 level at 60 mg/kg, ip for 5 days by Western blot analysis; format: functional, organism-based; conditions: CWR22R, time 5.0 day
[29] = target: T1, Protein cereblon/Histone-lysine N-methyltransferase NSD2 (Homo sapiens); assay: In vivo PROTAC activity at CRBN/NSD2 in SCID mouse xenografted with human SEM cells assessed as downregulation of NSD2 level at 60 mg/kg, iv for 5 days by immunohistochemical analysis; format: functional, organism-based; conditions: time 5.0 day
[30] = target: T1, Protein cereblon/Histone-lysine N-methyltransferase NSD2 (Homo sapiens); assay: In vivo PROTAC activity at CRBN/NSD2 in SCID mouse xenografted with human 22Rv1 cells assessed as downregulation of NSD2 level at 60 mg/kg, iv for 5 days by immunohistochemical analysis; format: functional, organism-based; conditions: CWR22R, time 5.0 day
[31] = target: T1, Protein cereblon/Histone-lysine N-methyltransferase NSD2 (Homo sapiens); assay: In vivo PROTAC activity at CRBN/NSD2 in SCID mouse xenografted with human 22Rv1 cells assessed as downregulation of NSD2 level at 60 mg/kg, ip for 5 days by immunohistochemical analysis; format: functional, organism-based; conditions: CWR22R, time 5.0 day

Measured: Activity

T1 sequence (O96028 whole entry, looked up): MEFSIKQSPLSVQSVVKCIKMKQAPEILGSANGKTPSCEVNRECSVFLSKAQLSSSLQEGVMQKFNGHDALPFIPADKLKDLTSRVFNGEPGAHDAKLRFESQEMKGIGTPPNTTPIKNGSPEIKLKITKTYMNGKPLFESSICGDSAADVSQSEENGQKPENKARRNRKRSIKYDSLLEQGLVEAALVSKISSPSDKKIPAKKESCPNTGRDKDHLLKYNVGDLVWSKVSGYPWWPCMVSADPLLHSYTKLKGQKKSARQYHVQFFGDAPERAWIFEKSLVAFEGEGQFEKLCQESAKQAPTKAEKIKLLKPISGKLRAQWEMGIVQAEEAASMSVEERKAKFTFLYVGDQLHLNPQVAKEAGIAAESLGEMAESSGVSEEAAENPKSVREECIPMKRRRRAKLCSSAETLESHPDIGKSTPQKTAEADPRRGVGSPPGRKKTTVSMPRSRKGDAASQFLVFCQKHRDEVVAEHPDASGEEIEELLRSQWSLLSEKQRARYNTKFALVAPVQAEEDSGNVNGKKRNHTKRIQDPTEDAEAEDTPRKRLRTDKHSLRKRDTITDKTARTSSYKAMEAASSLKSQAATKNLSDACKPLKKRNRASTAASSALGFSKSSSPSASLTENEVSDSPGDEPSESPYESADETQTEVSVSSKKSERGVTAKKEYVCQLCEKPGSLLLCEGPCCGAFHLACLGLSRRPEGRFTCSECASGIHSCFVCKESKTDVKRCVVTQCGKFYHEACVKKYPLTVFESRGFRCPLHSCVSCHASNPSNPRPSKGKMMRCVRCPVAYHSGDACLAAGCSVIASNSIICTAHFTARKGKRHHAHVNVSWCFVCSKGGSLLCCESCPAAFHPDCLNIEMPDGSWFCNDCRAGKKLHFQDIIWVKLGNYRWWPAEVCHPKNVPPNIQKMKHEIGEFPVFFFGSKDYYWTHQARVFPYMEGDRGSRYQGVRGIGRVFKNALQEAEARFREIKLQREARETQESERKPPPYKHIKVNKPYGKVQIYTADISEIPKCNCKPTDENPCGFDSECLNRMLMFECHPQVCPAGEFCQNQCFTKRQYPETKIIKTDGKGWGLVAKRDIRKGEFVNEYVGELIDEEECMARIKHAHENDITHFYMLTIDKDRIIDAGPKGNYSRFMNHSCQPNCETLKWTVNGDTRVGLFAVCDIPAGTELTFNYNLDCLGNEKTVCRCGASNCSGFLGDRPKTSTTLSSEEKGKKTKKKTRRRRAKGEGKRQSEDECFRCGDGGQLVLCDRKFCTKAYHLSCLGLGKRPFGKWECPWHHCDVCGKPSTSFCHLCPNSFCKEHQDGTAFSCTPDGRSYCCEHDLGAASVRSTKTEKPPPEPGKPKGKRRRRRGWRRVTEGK
T1 sequence (Q96SW2 whole entry, looked up): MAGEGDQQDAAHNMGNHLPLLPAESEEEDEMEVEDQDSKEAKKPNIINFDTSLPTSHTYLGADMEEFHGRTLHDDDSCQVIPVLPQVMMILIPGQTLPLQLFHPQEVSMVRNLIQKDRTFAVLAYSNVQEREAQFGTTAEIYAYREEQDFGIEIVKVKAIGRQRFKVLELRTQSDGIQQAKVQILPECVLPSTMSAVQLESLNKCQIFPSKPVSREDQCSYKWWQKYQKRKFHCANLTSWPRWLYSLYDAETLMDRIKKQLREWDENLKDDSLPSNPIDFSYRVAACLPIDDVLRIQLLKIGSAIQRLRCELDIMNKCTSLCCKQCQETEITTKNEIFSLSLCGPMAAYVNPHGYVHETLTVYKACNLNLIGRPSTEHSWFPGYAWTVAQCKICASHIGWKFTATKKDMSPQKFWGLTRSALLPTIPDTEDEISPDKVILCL
T2 sequence (P15170 whole entry, looked up): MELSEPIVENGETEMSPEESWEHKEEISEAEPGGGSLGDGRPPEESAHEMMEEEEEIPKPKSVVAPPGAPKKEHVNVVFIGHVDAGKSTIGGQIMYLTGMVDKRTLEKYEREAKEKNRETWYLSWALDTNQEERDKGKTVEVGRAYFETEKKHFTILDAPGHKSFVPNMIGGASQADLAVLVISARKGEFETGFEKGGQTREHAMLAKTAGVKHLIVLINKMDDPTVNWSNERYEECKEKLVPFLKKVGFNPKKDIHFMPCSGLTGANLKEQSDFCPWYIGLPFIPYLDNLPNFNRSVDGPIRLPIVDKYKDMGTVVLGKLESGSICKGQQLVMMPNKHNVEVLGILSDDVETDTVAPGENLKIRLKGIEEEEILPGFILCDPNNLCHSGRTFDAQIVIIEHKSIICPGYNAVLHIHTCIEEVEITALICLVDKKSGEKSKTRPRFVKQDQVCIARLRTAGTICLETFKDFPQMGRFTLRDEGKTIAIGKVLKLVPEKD
T2 sequence (Q96SW2 whole entry, looked up): as the sequence (Q96SW2 whole entry, looked up) above
Chain of Protein cereblon/Histone-lysine N-methyltransferase NSD3 (Homo sapiens) (Q96SW2 whole entry, looked up): as above
Chain of Protein cereblon/Histone-lysine N-methyltransferase NSD3 (Homo sapiens) (Q9BZ95 whole entry, looked up): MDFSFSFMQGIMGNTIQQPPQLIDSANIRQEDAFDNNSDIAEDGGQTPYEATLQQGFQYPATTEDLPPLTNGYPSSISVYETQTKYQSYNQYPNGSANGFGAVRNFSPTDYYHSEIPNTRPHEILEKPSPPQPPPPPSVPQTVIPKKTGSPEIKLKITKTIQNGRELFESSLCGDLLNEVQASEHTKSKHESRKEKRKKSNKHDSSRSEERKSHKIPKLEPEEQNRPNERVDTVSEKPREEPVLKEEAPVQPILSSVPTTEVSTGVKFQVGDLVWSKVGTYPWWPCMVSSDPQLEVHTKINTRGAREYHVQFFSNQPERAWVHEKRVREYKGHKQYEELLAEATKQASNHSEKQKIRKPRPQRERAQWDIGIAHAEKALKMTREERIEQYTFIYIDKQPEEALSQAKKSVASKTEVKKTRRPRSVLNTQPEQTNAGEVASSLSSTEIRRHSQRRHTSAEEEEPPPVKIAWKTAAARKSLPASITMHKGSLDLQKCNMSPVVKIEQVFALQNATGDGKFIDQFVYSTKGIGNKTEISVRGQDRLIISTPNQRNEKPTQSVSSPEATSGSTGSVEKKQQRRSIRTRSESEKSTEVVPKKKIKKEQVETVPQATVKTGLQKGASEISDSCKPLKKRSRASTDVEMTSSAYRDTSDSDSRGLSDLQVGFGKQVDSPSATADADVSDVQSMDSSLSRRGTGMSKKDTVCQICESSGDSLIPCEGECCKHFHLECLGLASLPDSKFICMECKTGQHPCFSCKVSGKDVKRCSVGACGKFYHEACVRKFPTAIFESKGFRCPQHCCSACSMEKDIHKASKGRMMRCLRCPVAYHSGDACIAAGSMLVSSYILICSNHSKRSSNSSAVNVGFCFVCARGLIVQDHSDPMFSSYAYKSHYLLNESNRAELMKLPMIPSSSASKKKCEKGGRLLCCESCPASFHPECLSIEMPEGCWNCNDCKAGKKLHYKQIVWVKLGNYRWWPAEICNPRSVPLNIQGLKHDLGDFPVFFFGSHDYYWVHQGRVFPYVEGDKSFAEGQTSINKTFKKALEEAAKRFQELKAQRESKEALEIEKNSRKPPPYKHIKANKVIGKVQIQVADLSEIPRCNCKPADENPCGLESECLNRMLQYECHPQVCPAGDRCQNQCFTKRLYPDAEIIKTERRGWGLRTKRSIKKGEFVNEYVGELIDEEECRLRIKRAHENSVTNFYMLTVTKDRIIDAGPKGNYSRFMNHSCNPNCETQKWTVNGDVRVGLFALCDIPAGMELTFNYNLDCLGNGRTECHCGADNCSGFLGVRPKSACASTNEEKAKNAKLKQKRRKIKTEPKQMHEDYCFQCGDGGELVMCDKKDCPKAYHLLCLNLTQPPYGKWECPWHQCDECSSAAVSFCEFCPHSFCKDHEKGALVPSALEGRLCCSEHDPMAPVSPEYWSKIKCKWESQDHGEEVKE
Chain of Protein cereblon/Zinc finger protein Aiolos (Homo sapiens) (Q96SW2 whole entry, looked up): as the sequence (Q96SW2 whole entry, looked up) above
Chain of Protein cereblon/Zinc finger protein Aiolos (Homo sapiens) (Q9UKT9 whole entry, looked up): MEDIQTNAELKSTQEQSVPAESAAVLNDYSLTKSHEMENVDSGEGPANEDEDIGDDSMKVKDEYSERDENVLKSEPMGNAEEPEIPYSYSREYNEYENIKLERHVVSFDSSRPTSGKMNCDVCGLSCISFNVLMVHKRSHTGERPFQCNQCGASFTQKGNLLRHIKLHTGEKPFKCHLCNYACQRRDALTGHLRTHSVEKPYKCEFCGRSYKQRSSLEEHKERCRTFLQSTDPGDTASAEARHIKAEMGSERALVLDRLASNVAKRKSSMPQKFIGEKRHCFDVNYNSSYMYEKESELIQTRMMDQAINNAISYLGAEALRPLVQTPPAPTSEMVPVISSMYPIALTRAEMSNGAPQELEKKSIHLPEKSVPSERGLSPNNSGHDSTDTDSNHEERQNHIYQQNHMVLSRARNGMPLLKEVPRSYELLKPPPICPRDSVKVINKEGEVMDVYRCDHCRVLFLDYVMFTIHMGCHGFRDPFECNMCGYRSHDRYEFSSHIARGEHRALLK
Chain of Cereblon/Casein kinase I alpha (Homo sapiens) (P48729 2-337 limits assumed): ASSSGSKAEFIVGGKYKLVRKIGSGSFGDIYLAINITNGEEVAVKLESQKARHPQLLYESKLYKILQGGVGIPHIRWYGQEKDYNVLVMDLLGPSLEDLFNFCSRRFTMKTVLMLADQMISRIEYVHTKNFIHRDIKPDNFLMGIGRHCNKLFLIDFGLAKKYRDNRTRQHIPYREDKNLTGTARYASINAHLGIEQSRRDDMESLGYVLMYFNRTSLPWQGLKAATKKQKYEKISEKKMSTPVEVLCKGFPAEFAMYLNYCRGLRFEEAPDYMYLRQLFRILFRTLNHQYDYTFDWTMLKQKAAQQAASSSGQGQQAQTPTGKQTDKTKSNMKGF
Chain of Cereblon/Casein kinase I alpha (Homo sapiens) (Q96SW2 whole entry partner): as the sequence (Q96SW2 whole entry, looked up) above

O=C1CCC(N2C(=O)c3ccc(N4CCC(NC(=O)c5ccc(NC(=O)c6ccc(CN(C(=O)c7ccc8c(c7)OCC(=O)N8)C7CC7)cc6)cc5)CC4)cc3C2=O)C(=O)N1 (stereo unspecified)
inactive: [5] | [7] | [9] | [11] | [12] | [13] | [14] | [15]
active: [1] Dose-Dependent Effect | [2] | [3] | [4] | [6] | [8] | [10] | [16] | [17] | [18] | [19] | [20] | [21] | [22] | [23] | [24] | [25] | [26] | [27] | [28] | [29] | [30] | [31]
